Key:
[1] = test system: human ovarian cancer SK-OV-3; conditions: 24 mg/kg, D0-4 IV; for Body weight change (%) D4: nude mice; for T/C (%) D22 / Tumor volume (mm^3) (D22) / Tumor inhibitory percent (%) D22 / Tumor volume (mm^3) (D0): SK-OV-3 xenograft in nude mice; for Tumor inhibitory percent (%) D22: P = 0.000 vs control; for Tumor volume (mm^3) (D0): baseline at grouping (D0)
Description: Purpose: to evaluate and compare the inhibitory activity of the water soluble paclitaxel derivatives, paclitaxel and Abraxane® on subcutaneously xenografted tumor of human ovarian cancer SK-OV-3 in nude mice.
Human ovarian cancer SK-OV-3 cells were subcutaneously inoculated to nude mice. After the tumor volume reached 100-150 mm^3, the animals were randomly divided into groups (D0), and administered with the water soluble paclitaxel derivatives of the following formula, paclitaxel, and Abraxane®, respectively once per day for 5 days. The tumor volume was measured 2-3 times per week, the animals were weighed and the data were recorded until day 22 (D22) after grouping.
(§1) The tumor volume (V) was calculated according to the equation: V=½×a×b^2, wherein a and b represent the length and the width, respectively.
T/C (%)=(T−T0)/(C−C0)×100, wherein T and C represent the tumor volume at the end of the experiment, and T0 and C0 represent the tumor volume at the beginning of the experiment.

[2] = test system: human prostate cancer PC-3; test: Inhibitory activity of docetaxel derivatives on subcutaneously xenografted tumor PC-3 in nude mice; assay type: in vivo; conditions: 33.6 mg/kg, D0 IV; for Weight change (%) D6: nude mice; for T/C (%) D20 / Tumor volume (mm^3) (D20) / Tumor inhibitory percent (%) D20 / Tumor volume (mm^3) (D0): PC-3 xenograft in nude mice; for Tumor inhibitory percent (%) D20: P = 0.000 vs control; for Tumor volume (mm^3) (D0): baseline at grouping (D0)
Description: Purpose: to evaluate and compare the inhibitory activity of the water soluble docetaxel derivatives and docetaxel on subcutaneously xenografted tumor of human prostate cancer PC-3 in nude mice
Human prostate cancer PC-3 cells were subcutaneously inoculated into nude mice. After the tumor volume reached 100-150 mm^3, the animals were randomly divided into several groups, and administered with the water soluble docetaxel derivatives of the following formula and docetaxel, respectively once on the same day (D0). The tumor volume was measured 2-3 times per week, the animals were weighed and the data were recorded until day 20 (D20) after grouping.
as §1
T/C (%)=(T−T0)/(C−C0)×100, wherein T and C represent the tumor volume at the end of the experiment; and T0 and C0 represent the tumor volume at the beginning of the experiment.

[3] = In vitro dissociation in blood plasma of rat; assay type: in vitro ADME, SD rats; conditions: fresh SD rat plasma, 37° C.; for Sampling time/Dissociation percent (%) 2 min: 2 min incubation; for Sampling time/Dissociation percent (%) 5 min: 5 min incubation; for Sampling time/Dissociation percent (%) 10 min: 10 min incubation
Protocol: The obtained water soluble taxane derivatives of the following formulae were formulated as 0.2 mg/ml aqueous solutions. […] After 2 min, 5 min and 10 min of incubation, 0.2 ml of solutions were respectively taken from each of the samples, and added to acetonitrile (0.4 ml) cooled to −20° C. for precipitation of protein.

[4] = In vitro dissociation in blood plasma of rabbit; assay type: in vitro ADME, New Zealand white rabbits; conditions: fresh New Zealand white rabbit plasma, 37° C.
Protocol: The obtained water soluble taxane derivatives of the following formulae were formulated as 0.2 mg/ml aqueous solutions. […]

SMILES | Body weight change (%) D4 [1] | T/C (%) D22 [1] | Tumor volume (mm^3) (D22) [1] | Tumor inhibitory percent (%) D22 [1] | Tumor volume (mm^3) (D0) [1] | Weight change (%) D6 [2] | T/C (%) D20 [2] | Tumor volume (mm^3) (D20) [2] | Tumor inhibitory percent (%) D20 [2] | Tumor volume (mm^3) (D0) [2] | Sampling time/Dissociation percent (%) 2 min [3] | Sampling time/Dissociation percent (%) 5 min [3] | Sampling time/Dissociation percent (%) 10 min [3] | Sampling time/Dissociation percent (%) 2 min [4] | Sampling time/Dissociation percent (%) 5 min [4] | Sampling time/Dissociation percent (%) 10 min [4]
CC(=O)O[C@H]1C(=O)[C@@]2(C)[C@H]([C@H](OC(=O)c3ccccc3)[C@]3(O)C[C@H](OC(=O)[C@H](OC(=O)C(F)CCN(C)C(C)C)[C@@H](NC(=O)c4ccccc4)c4ccccc4)C(C)=C1C3(C)C)[C@]1(OC(C)=O)CO[C@@H]1C[C@@H]2O.Cl (stereo partly drawn) [Compound C20, 2′-O-[4-N-methyl-N-isopropylamino-2(R,S)-fluorobutyryl]paclitaxel hydrochloride] | −10.3% | −38% | 60.4 ± 12.3 mm^3 | 98% | 127.9 ± 11.4 mm^3 | – | – | – | – | – | – | – | – | – | – | –
CC(=O)O[C@@]12CO[C@@H]1C[C@H](O)[C@@]1(C)C(=O)[C@H](O)C3=C(C)[C@@H](OC(=O)[C@H](OC(=O)C(F)CCN(C)C)[C@@H](NC(=O)OC(C)(C)C)c4ccccc4)C[C@@](O)([C@@H](OC(=O)c4ccccc4)[C@H]21)C3(C)C.CS(=O)(=O)O (stereo partly drawn) [Compound C6, 2′-O-[4-N,N-dimethylamino-2(R,S)-fluorobutyryl]docetaxel methanesulfonate] | – | – | – | – | – | −12.6% | −76% | 27.0 ± 12.3 mm^3 | 175% | 113.8 ± 3.0 mm^3 | 59.1% | 93.3% | 100% | 76.8% | 97.8% | 100%
CC(=O)OC1C(=O)C2(C)C(O)CC3OCC3(OC(C)=O)C2C(OC(=O)c2ccccc2)C2(O)CC(OC(=O)C(OC(=O)C(F)CC(C)N(C)C)C(NC(=O)c3ccccc3)c3ccccc3)C(C)=C1C2(C)C.O=C(O)C=CC(=O)O [Compound C23, 2′-O-[4-N,N-dimethylamino-2(R)-fluorovaleryl]paclitaxel maleate] | −9.4% | −23% | 70.8 ± 16.8 mm^3 | 60% | 135.8 ± 14.7 mm^3 | – | – | – | – | – | – | – | – | – | – | –
CC(=O)O[C@H]1C(=O)[C@@]2(C)[C@H]([C@H](OC(=O)c3ccccc3)[C@]3(O)C[C@H](OC(=O)[C@H](OC(=O)C(CCN(C)C)C(F)F)[C@@H](NC(=O)c4ccccc4)c4ccccc4)C(C)=C1C3(C)C)[C@]1(OC(C)=O)CO[C@@H]1C[C@@H]2O.Cl (stereo partly drawn) [Compound C22, 2′-O-[4-N,N-dimethylamino-2(R,S)-2-difluoromethylbutyryl]paclitaxel hydrochloride] | −8.4% | −35% | 61.2 ± 13.5 mm^3 | 135% | 133.4 ± 12.6 mm^3 | – | – | – | – | – | – | – | – | – | – | –
CCN(CC)CCC(F)C(=O)OC(C(=O)OC1CC2(O)C(OC(=O)c3ccccc3)C3C4(OC(C)=O)COC4CC(O)C3(C)C(=O)C(O)C(=C1C)C2(C)C)C(NC(=O)OC(C)(C)C)c1ccccc1.O=C(O)C=CC(=O)O [Compound C26, 2′-O-[4-N,N-diethylamino-2(S)-fluorobutyryl]docetaxel maleate] | – | – | – | – | – | −14.1% | −52% | 32.4 ± 13.5 mm^3 | 120% | 114.4 ± 2.8 mm^3 | – | – | – | – | – | –
CC(=O)O[C@@]12CO[C@@H]1C[C@H](O)[C@@]1(C)C(=O)[C@H](O)C3=C(C)[C@@H](OC(=O)[C@H](OC(=O)[C@@H](CCN(C)C)C(F)(F)F)[C@@H](NC(=O)OC(C)(C)C)c4ccccc4)C[C@@](O)([C@@H](OC(=O)c4ccccc4)[C@H]21)C3(C)C.CS(=O)(=O)O [Compound C28, 2′-O-[4-N,N-dimethylamino-2(R)-2-trifluoromethylbutyryl]docetaxel methanesulfonate] | – | – | – | – | – | −13.9% | −46% | 34.5 ± 12.6 mm^3 | 105% | 113.5 ± 2.8 mm^3 | – | – | – | – | – | –
CC(=O)O[C@@]12CO[C@@H]1C[C@H](O)[C@@]1(C)C(=O)[C@H](O)C3=C(C)[C@@H](OC(=O)[C@H](OC(=O)[C@@H](F)CCN(C)C)[C@@H](NC(=O)OC(C)(C)C)c4ccccc4)C[C@@](O)([C@@H](OC(=O)c4ccccc4)[C@H]21)C3(C)C.CS(=O)(=O)O [Compound C5, 2′-O-[4-N,N-dimethylamino-2(S)-fluorobutyryl]docetaxel methanesulfonate] | – | – | – | – | – | – | −76% | 26.8 ± 12.6 mm^3 | 175% | 113.4 ± 3.1 mm^3 | 58.9% | 93.3% | 100% | 81.2% | 93.1% | 100%
CC(=O)O[C@@]12CO[C@@H]1C[C@H](O)[C@@]1(C)C(=O)[C@H](O)C3=C(C)[C@@H](OC(=O)[C@H](OC(=O)[C@H](F)CCN(C)C(C)C)[C@@H](NC(=O)OC(C)(C)C)c4ccccc4)C[C@@](O)([C@@H](OC(=O)c4ccccc4)[C@H]21)C3(C)C.Cl [Compound C27, 2′-O-[4-N-methyl-N-isopropylamino-2(R)-fluorobutyryl]docetaxel hydrochloride] | – | – | – | – | – | −14.4% | −44% | 35.3 ± 14.7 mm^3 | 101% | 116.3 ± 3.7 mm^3 | – | – | – | – | – | –
CC(=O)O[C@@]12CO[C@@H]1C[C@H](O)[C@@]1(C)C(=O)[C@H](O)C3=C(C)[C@@H](OC(=O)[C@H](OC(=O)[C@H](F)CCN(C)C)[C@@H](NC(=O)OC(C)(C)C)c4ccccc4)C[C@@](O)([C@@H](OC(=O)c4ccccc4)[C@H]21)C3(C)C.CS(=O)(=O)O [Compound C4, 2′-O-[4-N,N-dimethylamino-2(R)-fluorobutyryl]docetaxel methanesulfonate] | – | – | – | – | – | – | −77% | – | 177% | 113.7 ± 2.9 mm^3 | 59.2% | 93.4% | 100% | 81.6% | 94.8% | 100%
